Experimental data reported in ChEMBL document CHEMBL4270506, “Recent advances in drug discovery of phototherapeutic non-porphyrinic anticancer agents” (Eur J Med Chem, 2017).

Key:
[1] = system: SK-OV-3; assay: Phototoxicity in human SKOV3 cells assessed as reduction in cell viability in presence of irradiation with green lED light at 25.2 J/cm2 for 2 hrs followed by incubation in dark for 24 hrs by MTT assay; type: functional, cell-based; settings: SK-OV-3, light or radiation study
[2] = Dark toxicity in human […] cells assessed as cell viability at 10 ug/ml by CCK8 assay; type: cell-based; settings: read-out: Activity
[3] = Phototoxicity in human […] cells assessed as cell viability at 10 ug/ml under irradiation at 457 nm at 20 J/cm2 by CCK8 assay; type: functional; settings: light or radiation study, read-out: Activity
[4] = Lipophilicity, log P of the compound; type: physicochemical; settings: octanol/water
[5] = Dark toxicity in human […] cells assessed as cell viability at 50 ug/ml by CCK8 assay; type: cell-based; settings: read-out: Activity
[6] = Phototoxicity in human […] cells assessed as cell viability at 5 ug/ml under irradiation at 532 nm by CCK8 assay; type: functional; settings: light or radiation study, read-out: Activity
[7] = Dark toxicity in human LoVo cells assessed as reduction in cell viability after 72 hrs by MTT assay; type: cell-based
[8] = system: LoVo; assay: Phototoxicity in human LoVo cells assessed as cell viability at 2 to 8 umol/L pre-incubated for 30 mins before irradiation at 365 nm at 3.75 J/cm2 and measured after 72 hrs by MTT assay; type: functional; settings: light or radiation study
[9] = Dark toxicity in human Jurkat cells assessed as reduction in cell viability after 72 hrs by MTT assay; type: cell-based
[10] = system: Jurkat; assay: Phototoxicity in human Jurkat cells assessed as cell viability at 2 to 8 umol/L pre-incubated for 30 mins before irradiation at 365 nm at 3.75 J/cm2 and measured after 72 hrs by MTT assay; type: functional; settings: light or radiation study
[11] = Dark toxicity in human K562 cells assessed as reduction in cell viability after 72 hrs by MTT assay; type: cell-based
[12] = system: K562; assay: Phototoxicity in human K562 cells assessed as cell viability at 2 to 8 umol/L pre-incubated for 30 mins before irradiation at 365 nm at 3.75 J/cm2 and measured after 72 hrs by MTT assay; type: functional; settings: K562, light or radiation study
[13] = Dark toxicity in human A431 cells assessed as reduction in cell viability after 72 hrs by MTT assay; type: cell-based, A-431
[14] = system: A-431; assay: Phototoxicity in human A431 cells assessed as cell viability at 2 to 8 umol/L pre-incubated for 30 mins before irradiation at 365 nm at 3.75 J/cm2 and measured after 72 hrs by MTT assay; type: functional; settings: A-431, light or radiation study
[15] = Dark toxicity in human BxPC3 cells assessed as inhibition of cell growth at 6.25 to 25 uM incubated for 24 hrs by MTT assay; type: cell-based, BXPC-3; settings: read-out: GI
[16] = system: BXPC-3; assay: Phototoxicity in human BxPC3 cells assessed as inhibition of cell growth at 6.25 uM pre-incubated for 3 hrs before irradiation with 780 nm light for 1 mins and measured after 24 hrs by MTT assay; type: functional; settings: BXPC-3, light or radiation study, read-out: GI
[17] = system: BXPC-3; assay: Phototoxicity in human BxPC3 cells assessed as inhibition of cell growth at 12.5 uM pre-incubated for 3 hrs before irradiation with 780 nm light for 1 mins and measured after 24 hrs by MTT assay; type: functional; settings: BXPC-3, light or radiation study, read-out: GI
[18] = system: BXPC-3; assay: Phototoxicity in human BxPC3 cells assessed as inhibition of cell growth at 25 uM pre-incubated for 3 hrs before irradiation with 780 nm light for 1 mins and measured after 24 hrs by MTT assay; type: functional; settings: BXPC-3, light or radiation study, read-out: GI
[19] = Dark toxicity in human MIAPaCa2 cells assessed as inhibition of cell growth at 6.25 to 25 uM incubated for 24 hrs by MTT assay; type: cell-based, MIA PaCa-2; settings: read-out: GI
[20] = system: MIA PaCa-2; assay: Phototoxicity in human MIAPaCa2 cells assessed as inhibition of cell growth at 6.25 uM pre-incubated for 3 hrs before irradiation with 780 nm light for 1 mins and measured after 24 hrs by MTT assay; type: functional; settings: MIA PaCa-2, light or radiation study, read-out: GI
[21] = system: MIA PaCa-2; assay: Phototoxicity in human MIAPaCa2 cells assessed as inhibition of cell growth at 12.5 uM pre-incubated for 3 hrs before irradiation with 780 nm light for 1 mins and measured after 24 hrs by MTT assay; type: functional; settings: MIA PaCa-2, light or radiation study, read-out: GI
[22] = system: MIA PaCa-2; assay: Phototoxicity in human MIAPaCa2 cells assessed as inhibition of cell growth at 25 uM pre-incubated for 3 hrs before irradiation with 780 nm light for 1 mins and measured after 24 hrs by MTT assay; type: functional; settings: MIA PaCa-2, light or radiation study, read-out: GI

`CC1=C(I)C(C)=[N+]2C1=C(c1ccc([N+](=O)[O-])cc1)c1c(C)c(I)c(C)n1[B-]2(F)F` gave an EC50 [1] of 2.01 nM.
With `COc1ccc(C2=C3C(C)=C(I)C(C)=[N+]3[B-](F)(F)n3c(C)c(I)c(C)c32)cc1` the EC50 [1] was 0.65 nM.
Compound `COCCOCCOCCOCCN(CCOCCOCCOCCOC)c1ccc(/C=C2\CC/C(=C\c3ccc(N(CCOCCOCCOCCOC)CCOCCOCCOCCOC)cc3)C2=O)cc1` has a viability at 10 ug/ml [2] of over 80%, a viability at 10 µg/mL [3] of over 60% and a logP [4] of 2.32 to 3.04.
Work on `CC1=C(I)C(C)=[N+]2C1=Cc1c(C)c(I)c(C)n1[B-]2(F)F` yielded an EC50 [1] of 28.8 nM.
Compound `CN(CCC(=O)O)c1ccc(/C=C2\CC/C(=C\c3ccc(N(C)CCC(=O)O)cc3)C2=O)cc1` has a viability at 50 ug/ml [5] of over 70% and a viability at 5 µg/mL [6] of over 80%.
With `CC1=C(I)C(C)=[N+]2C1=C(c1ccncc1)c1c(C)c(I)c(C)n1[B-]2(F)F` the EC50 [1] was 1.29 nM.
`CCOC(=O)c1cc2c(n1C)-c1[nH]c(=O)ncc1CC2` gave a GI50 at 72 h [7] of over 20000 nM, a GI50 [8] of 2300 nM and a GI50 at 72 h [9] of 6000 nM. It also gave a GI50 [10] of 1080 nM, a GI50 at 72 h [11] of over 20000 nM and a GI50 [12] of 2920 nM. It also gave a GI50 at 72 h [13] of over 20000 nM and a GI50 [14] of 2450 nM.
With `COCCOCCOCCOCCN(C)c1ccc(/C=C2\CC/C(=C\c3ccc(N(C)CCOCCOCCOCCOC)cc3)C2=O)cc1` the viability at 10 ug/ml [2] was over 80%, the viability at 10 µg/mL [3] was under 10% and the logP [4] was 2.32 to 3.04.
With `CC1=C(I)C(C)=[N+]2C1=C(c1c(Cl)cccc1Cl)c1c(C)c(I)c(C)n1[B-]2(F)F` the EC50 [1] was 0.77 nM.
Work on `CCOC(=O)c1cc2c(n1C)-c1nc(N)ncc1CC2` yielded a GI50 at 72 h [7] of over 20000 nM, a GI50 [8] of over 20000 nM and a GI50 at 72 h [9] of over 20000 nM. The GI50 [10] was 8420 nM, the GI50 at 72 h [11] was over 20000 nM and the GI50 [12] was over 20000 nM. It also gave a GI50 at 72 h [13] of over 20000 nM and a GI50 [14] of over 20000 nM.
In the case of `CCOC(=O)c1cc2c(n1Cc1ccccc1)-c1nc(N)ncc1CC2`, the GI50 at 72 h [7] is reported as 14200 nM, the GI50 [8] is reported as 440 nM and the GI50 at 72 h [9] is reported as 14000 nM. The GI50 [10] was 210 nM, the GI50 at 72 h [11] was over 20000 nM and the GI50 [12] was 480 nM. For the same compound, the GI50 at 72 h [13] was over 20000 nM and the GI50 [14] was 390 nM.
Compound `CC1(C)C(/C=C/C=C/C=C/C=C2\N(CCCCS(=O)(=O)O)c3ccc4ccccc4c3C2(C)C)=[N+](CCCCS(=O)(=O)[O-])c2ccc3ccccc3c21` [INDOCYANINE GREEN] has an inhibition at 24 h, up to 25 µM [15] of 0%, an inhibition of growth at 6.25 µM [16] of 0% and an inhibition of growth at 12.5 µM [17] of 0%. It also gave an inhibition of growth at 25 µM [18] of 0%, an inhibition at 24 h, up to 25 µM [19] of 0% and an inhibition of growth at 6.25 µM [20] of 0%. The inhibition of growth at 12.5 µM [21] was 0% and the inhibition of growth at 25 µM [22] was 0%.
